From the NIST ThermoML archive (doi:10.1021/je800088e)
Where “and” joins values, the source holds several entries; their conditions need not be identical. Equal values may be shown once. Numbers after ± are expanded uncertainties.

Settings: 364.52 K; Liquid; Closed cell (Static) method

Which “vapor or sublimation pressure” value does the source give for `CC(C)O` [propan-2-ol] here?
Its value is 143.9 ± 1 kPa.

Which “vapor or sublimation pressure” value does the source give for `CCC(C)O` (stereo unspecified) [butan-2-ol] here?
The value was 74 ± 0.9 kPa.

For `C/C=C\C` [(Z)-2-butene], which “vapor or sublimation pressure” value is on record?
Its value is 1190.5 ± 5.3 kPa and 1189.6 ± 5.2 kPa.

With `CC(C)(C)O` [2-methylpropan-2-ol] as the compound, how does the “vapor or sublimation pressure” value read?
The value was 143 ± 1 kPa.

Which “vapor or sublimation pressure” value does the source give for `CO` [methanol] here?
The value was 267.3 ± 1.4 kPa.

Same assay, conditions: 364.53 K; Liquid; Closed cell (Static) method

With `C/C=C\C` [(Z)-2-butene] as the compound, how does the “vapor or sublimation pressure” value read?
The value was 1190.7 ± 5.2 kPa.
